In patent US20030225047A1, “Sulfatase inhibiting progestogen-only contraceptive regimens” (priority 2002, published 2003):

Assays:
[1] = humans; major metabolite; cited from earlier work
[2] = tested on: conversion of E1S to E2 (sulfatase activity) in MCF-7 breast cancer cell line; assay: Conversion of [3H]-E1S to E2 in MCF-7 human mammary cancer cells; assay type: cell-based; conditions: for inhibition at 0.005 µM / inhibition at 0.5 µM / inhibition at 50 µM / IC50: Homo sapiens; for inhibition at 0.005 µM: MCF7, compound conc 0.005 × 10^−6 mol/l; for inhibition at 0.005 µM / inhibition at 0.5 µM / inhibition at 50 µM: mean ± SEM; for inhibition at 0.5 µM: MCF7, compound conc 0.5 × 10^−6 mol/l; for inhibition at 50 µM: MCF7, compound conc 50 × 10^−6 mol/l; for IC50: MCF7, non-linear regression analysis; for E2 formed: 5×10^−9 mol/l [3H]-E1S, control 2185 ± 101
Procedure: (§1) [6,7-^3H(N)]-estrone sulfate (^3H-E1S), ammonium salt (sp. act. 53 Ci/mmol) and [4-^14C]-estradiol (^14C-E2) (sp. act. 57 mCi/mmol) were purchased from New England Nuclear Division (DuPont de Nemours, Les Ulls, France). The purity of the radioisotopes was assessed by thin-layer chromatography (TLC) in the appropriate system before use. E1S, ammonium salt, unlabeled E1and E2, (analytical grade) were obtained from Sigma-Aldrich Chimle, (St Quentin Fallavier, France). 17-deacetylnorgestimate (NGMN; 13-ethyl-17-hydroxy-18,19-dinor-17α-pregn-4-en-20-yn-3-one oxime) was a gift from R. W. Johnson Pharmaceutical Research Institute, Medicinal Chemistry Department, (Raritan, N.J., USA); medroxyprogesterone acetate (MPA, 17α-acetoxy-6α-methylprogesterone) was obtained from Sigma-Aldrich Chimie. All other chemicals were of the highest grade commercially available.
(§2) The hormone-dependent MCF-7 and T-47D human mammary cancer cell lines were grown in Eagle's Minimal Essential Medium (MEM) buffered with 10 mmol/l HEPES (pH 7.6), supplemented with 2 mmol/l L-glutamine, 100 U/ml penicillin-streptomycin and 5% fetal calf serum (FCS) (A.T.G.C., Marne-la-Vallée, France) for T-47D, or 10% FCS for MCF-7 cells, and incubated at 37° C. n a humidified atmosphere of 5% CO2. Media were changed twice a week. The cells were passed every 10-12 days and replated in 75 cm^2 flasks (A.T.G.C.) at 3×10^6 cells/flask. Four days before the experiments, the cells were transferred to MEM containing 5% steroid-depleted treated FCS. The FCS had been treated overnight at 4° C. with dextran-coated charcoal (DCC)(0.1-1% w/v, DCC-FCS). The MCF-7 and T-47D cell lines used herein were deposited in accordance with the Budapest Treaty under the references MCF7_JJPRD and T47D_JJPRD on May 17, 2002 at The Belgian Co-ordinated Collections of Micro-organisms (BCCM), Laboratorium voor Moleculaire Biologie, Universiteit Gent, K. L. Ledeganckstraat 35, B-9000 Gent, Belgium and are publicly available under accession numbers LMBP 5862CB and LMBP 5863CB, respectively.
(§3) Preconfluent cells were incubated for 4 hours at 37° C. in MEM-DCC-FCS with the addition of 5×10^−9 mol/l of [^3H]-E1S, alone (control cells) or in combination with the different compounds: NGMN or MPA, dissolved in ethanol (final concentration <0.2%), at a range of concentrations of 5×10^−5-5×10^−9 mol/l. Control cells received ethanol vehicle only. After 24 hours, the medium was removed, the cells washed twice with ice-cold Hank's Buffered Saline Solution (HBSS, calcium-magnesium-free)(A.T.G.C.) and harvested by scraping. After centrifugation, the pallet was treated with 80% ethanol and the radioactivity extracted for at least 24 h at −20° C. The cellular radioactivity uptake was determined in the ethanolic supernatant and the DNA content in the remaining pellet was evaluated according to Burton Biochem Journal 62:315-323, 1956. [^14C]-E2 (5,000 dpm) was added to monitor analytical losses and unlabeled E1and E2 (50 μg) were used as carriers and reference indicators. In the total ethanolic extracts, E2 was isolated by thin layer chromatography (TLC) on silica gel 60F254 (Merck, Darmstadt, Germany), developed with chloroformi-ethylacetate (4:1, v/v) system. After visualization of the estrogens under U.V. at 254 nm, the appropriate areas were cut off into small pieces, placed in liquid scintillation vials with ethanol (0.5 ml) and allowed to extract for […]. Three ml of Opti-fluor (Packard, Rungis, France) were added and the vials were analyzed for ^3H and ^14C contents with quench correction by external standarization. The quantitative evaluation of E2 was calculated as a percentage of the total radioactivity associated with the cells and then expressed as fmol of E2 formed/mg DNA from E1S.
(§4) Data are expressed as the mean±standard error of the mean (SEM) values. Student's t-test was used to assess the significance of the differences between means; p values ≦0.05_were considered significant. […]

[3] = tested on: conversion of E1S to E2 (sulfatase activity) in T-47D breast cancer cell line; assay: Conversion of [3H]-E1S to E2 in T-47D human mammary cancer cells; assay type: cell-based; conditions: for inhibition at 0.005 µM / inhibition at 0.5 µM / inhibition at 50 µM / IC50: Homo sapiens, T47D; for inhibition at 0.005 µM / inhibition at 0.5 µM / inhibition at 50 µM: mean ± SEM; for IC50: non-linear regression analysis; for E2 formed: 5×10^−9 mol/l [3H]-E1S, control 1805 ± 152
Procedure: as §1, §2, §3, §4

[4] = compound conc 0.005 × 10^−6 mol/l
[5] = compound conc 0.5 × 10^−6 mol/l
[6] = compound conc 0.005 × 10^−6 mol/l, mean of 3 experiments

| Structure (SMILES) | fraction of norgestimate converted to norelgestromin in vivo [1] [%] | inhibition at 0.005 µM [2] [%] | inhibition at 0.5 µM [2] [%] | inhibition at 50 µM [2] [%] | IC50 [2] [µM] | E2 formed [2, 4] [fmol/mg DNA] | E2 formed [2, 5] [fmol/mg DNA] | E2 formed ([2]; compound conc 50 × 10^−6 mol/l) [fmol/mg DNA] | inhibition at 0.005 µM [3, 4] [%] | inhibition at 0.5 µM [3, 5] [%] | inhibition at 50 µM ([3]; compound conc 50 × 10^−6 mol/l) [%] | IC50 [3] [µM] | E2 formed [3, 6] [fmol/mg DNA] | E2 formed [3, 5] [fmol/mg DNA] | E2 formed ([3]; compound conc 50 × 10^−6 mol/l) [fmol/mg DNA] |
| --- | --- | --- | --- | --- | --- | --- | --- | --- | --- | --- | --- | --- | --- | --- | --- |
| C#C[C@]1(OC(C)=O)CC[C@H]2[C@@H]3CCC4=CC(=NO)CC[C@@H]4[C@H]3CC[C@@]21CC (mixture of isomers) [norgestimate] | ≥ 80 | – | – | – | – | – | – | – | – | – | – | – | – | – | – |
| CC(=O)O[C@]1(C(C)=O)CC[C@H]2[C@@H]3C[C@H](C)C4=CC(=O)CC[C@]4(C)[C@H]3CC[C@@]21C [MPA, 17α-acetoxy-6α-methylprogesterone] | – | 6 | 20 | 63 | 26.1 | 2054 | 1748 | 808 | 31 | 47 | 61 | 2.15 | 1245 | 957 | 704 |
| C#C[C@]1(O)CC[C@H]2[C@@H]3CCC4=C/C(=N/O)CC[C@@H]4[C@H]3CC[C@@]21CC [NGMN, 13-ethyl-17-hydroxy-18,19-dinor-17α-pregn-4-en-20-yn-3-one oxime] | – | 25 | 57 | 96 | 0.178 | 1639 | 940 | 87 | 43 | 74 | 97 | 0.0127 | 1029 | 469 | 54 |
